Patent US20120052061A1, “THERAPIES FOR TREATING CANCER USING COMBINATIONS OF COX-2 INHIBITORS AND ANTI-HER2(ERBB2) ANTIBODIES OR COMBINATIONS OF COX-2 INHIBITORS AND HER2(ERBB2) RECEPTOR TYROSINE KINASE INHIBITORS” (Tragara Pharmaceuticals Inc., priority 2007, published 2012)
Where two headings read alike, the source gives them in different places.

Key:
[1] = oral pharmacokinetics in rodents; type: in vivo, rodents (mice, rats)
Protocol: (§1) Peak plasma concentrations were achieved between 1 and 3 hours after a dose of 5 mg/kg.

[2] = rat, in vivo
[3] = dog, in vivo
[4] = in vivo
MCF-7 tumor = conditions: for tolerability: mouse, in vivo;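 for all read-outs here: mouse MCF-7 tumor model, oral gavage dosing started once mean tumor size reached 100-200 mg, endpoint at tumor volume 0.75 g or 90 days, whichever occurred earlier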
Protocol: Upon reaching an average tumor size of 100-200 mg the treatment was begun. Celecoxib and 2-(4-ethoxyphenyl)-4-methyl-1-(4-sulfamoylphenyl)-pyrrole were both formulated as a solution in 1% carboxymethyl cellulose/water and dosed orally by gavage. The endpoint for the study was when tumor volume reached 0.75 gms or 90 days, which ever came first.

BT474 tumor = assay: BT474 model, tumor growth delay study (Example 9); conditions: po, qd to end;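 note: female SCID mice bearing subcutaneous flank BT474 xenografts, oral gavage dosing started at 100-200 mg tumors, caliper volume twice weekly, endpoint tumor 0.75 g or 90 days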
Protocol: Female SCID mice were injected subcutaneously in the flank (1 mm^3 BT474 tumor) and tumor volume was evaluated using a caliper twice a week for up to 90 days, longer for responders. Upon reaching an average tumor size of 100-200 mg the treatment was begun. Celecoxib and 2-(4-ethoxyphenyl)-4-methyl-1-(4-sulfamoylphenyl)-pyrrole were both formulated as a solution in 1% carboxymethyl cellulose/water and dosed orally by gavage. […] The endpoint for the study was when tumor volume reached 0.75 gms or 90 days, which ever came first.

[5] = human, in vivo
[6] = oral pharmacokinetics, all species examined; type: in vivo, mice, rats, dogs, and monkeys; conditions: orally administered
Protocol: as §1

[7] = human, in vivo, po
Protocol: as §1

[8] = oral pharmacokinetics in monkeys; type: in vivo
Protocol: as §1

[9] = oral pharmacokinetics in dogs; type: in vivo
Protocol: as §1

[10] = system: human breast cancer cells (SK-BR-3); assay: SK-BR-3 model (Example 8); type: in vivo, nude mice; conditions: trastuzumab intravenously
Protocol: Mice are injected subcutaneously in the left paw (1×10^6 tumor cells suspended in 30% Matrigel) and tumor volume is evaluated using a phlethysmometer twice a week for 30-60 days. Implantation of human breast cancer cells (SK-BR-3) into nude mice produces tumors that will reach 0.6-2 ml between 30-50 days. […] The data is expressed as the mean+/−SEM. Student's and Mann-Whitney tests are used to assess differences between means using the InStat software package.
The efficacy of both agents are determined by measuring tumor volume.
B. In a second assay, mice injected with SK-BR-3 cancer cells are then treated with 5-FU on days 12 through 15. […] The efficacy of both agents are determined by measuring tumor volume.

[11] = Groups 3 and 9: 30 mg/kg, po, daily
[12] = Groups 4 and 10: 10 mg/kg, po, daily
[13] = Groups 5 and 11: 3 mg/kg, po, daily
[14] = Groups 6 and 12: 1 mg/kg, po, daily
[15] = Groups 2 and 6: single agent 100 mg/kg
[16] = Groups 3 and 7: single agent 30 mg/kg
[17] = third assay (C): 5-FU i.p 50 mg/kg on days 14 through 17, COX-2 inhibitor in the diet
[18] = Group 5: single agent 300 mg/kg

With `CCOc1ccc(-c2cc(C)cn2-c2ccc(S(N)(=O)=O)cc2)cc1` the half-life ([1]; mice, rats, plasma, 5 mg/kg, rodents, oral, read-out: elimination half life (t1/2)) was 4 to 5 h, the Oral availability ([1]; rodent) was “greatest” and the minimum lethal dose [2] was 600 mg/kg. The minimum lethal dose [3] was over 2000 mg/kg, the toxicological findings [4] was “expected findings related to inhibition of cyclooxygenase” and the Difference from control (MCF-7 tumor; Group 7: 0.3 mg/kg, po, daily) was 2.0. The “Median Total Time to Endpoint” value (MCF-7 tumor; Group 7: 0.3 mg/kg, po, daily) was 7.5 days, the Difference from control (MCF-7 tumor; [11]) was 2.5 and the “Median Total Time to Endpoint” value (MCF-7 tumor; [11]) was 8.0 days. The Difference from control (MCF-7 tumor; [12]) was 1.8, the “Median Total Time to Endpoint” value (MCF-7 tumor; [12]) was 7.3 days and the Difference from control (MCF-7 tumor; [13]) was 1.3. For the same compound, the “Median Total Time to Endpoint” value (MCF-7 tumor; [13]) was 6.8 days, the Difference from control (MCF-7 tumor; [14]) was 1.6 and the “Median Total Time to Endpoint” value (MCF-7 tumor; [14]) was 7.1 days. The tolerability (MCF-7 tumor; po) was “well-tolerated”, the “active as a single agent in MCF-7” value (MCF-7 tumor; single agent, po, daily) was “Neither” and the “% tumor growth delay” value (BT474 tumor; Group 4: single agent 10 mg/kg) was −22%. The Difference from control (BT474 tumor; Group 4: single agent 10 mg/kg) was −8.5, the “Median Total Time to Endpoint” value (BT474 tumor; Group 4: single agent 10 mg/kg) was 29.7 days and the “Regressions: CR (complete regressions)” value (BT474 tumor; Group 4: single agent 10 mg/kg) was 0/0/0. For the same compound, the “Regressions: PR (partial regressions)” value (BT474 tumor; Group 4: single agent 10 mg/kg) was 0/0/0, the “Regressions: TFS (tumor free survivors)” value (BT474 tumor; Group 4: single agent 10 mg/kg) was 0/0/0 and the “% tumor growth delay” value (BT474 tumor; [15]) was −14%. The Difference from control (BT474 tumor; [15]) was −5.5, the “Median Total Time to Endpoint” value (BT474 tumor; [15]) was 32.7 days and the “Regressions: CR (complete regressions)” value (BT474 tumor; [15]) was 0/0/0. The “Regressions: PR (partial regressions)” value (BT474 tumor; [15]) was 0/0/0, the “Regressions: TFS (tumor free survivors)” value (BT474 tumor; [15]) was 0/0/0 and the “% tumor growth delay” value (BT474 tumor; [16]) was −16%. For the same compound, the Difference from control (BT474 tumor; [16]) was −6.2, the “Median Total Time to Endpoint” value (BT474 tumor; [16]) was 32.0 days and the “Regressions: CR (complete regressions)” value (BT474 tumor; [16]) was 0/0/0. For the same compound, the “Regressions: PR (partial regressions)” value (BT474 tumor; [16]) was 0/0/0, the “Regressions: TFS (tumor free survivors)” value (BT474 tumor; [16]) was 0/0/0 and the “gastric or duodenal toxicity compared to placebo” value [5] was “no increase in gastric or duodenal toxicity”. For the same compound, the absorption [6] was “rapidly absorbed”, the dose exposure relationship [7] was “linear dose exposure relationship” and the Oral availability [8] was 34%. It also gave an Oral availability [9] of 59%.
In the case of `O=c1[nH]cc(F)c(=O)[nH]1` [5-FU, 5-fluorouracil], the “reduction of tumor volume” value ([10]; second assay (B): 5-FU i.p 50 mg/kg on days 12, 13, 14, and 15, pyrrole in the diet) is reported as 61% and the “reduction of tumor volume” value [10, 17] is reported as 35%.
For `Cc1ccc(-c2cc(C(F)(F)F)nn2-c2ccc(S(N)(=O)=O)cc2)cc1` [celecoxib, reference compound], the Difference from control (MCF-7 tumor; Group 8: 100 mg/kg, po, daily) was 1.6, the “Median Total Time to Endpoint” value (MCF-7 tumor; Group 8: 100 mg/kg, po, daily) was 7.1 days and the Difference from control (MCF-7 tumor; [11]) was 2.1. The “Median Total Time to Endpoint” value (MCF-7 tumor; [11]) was 7.6 days, the Difference from control (MCF-7 tumor; [12]) was 2.1 and the “Median Total Time to Endpoint” value (MCF-7 tumor; [12]) was 7.6 days. The Difference from control (MCF-7 tumor; [13]) was 1.4, the “Median Total Time to Endpoint” value (MCF-7 tumor; [13]) was 6.9 days and the Difference from control (MCF-7 tumor; [14]) was 1.7. For the same compound, the “Median Total Time to Endpoint” value (MCF-7 tumor; [14]) was 7.2 days, the tolerability (MCF-7 tumor; po) was “well-tolerated” and the “% tumor growth delay” value (BT474 tumor; [18]) was −4%. For the same compound, the Difference from control (BT474 tumor; [18]) was −1.6, the “Median Total Time to Endpoint” value (BT474 tumor; [18]) was 36.6 days and the “Regressions: CR (complete regressions)” value (BT474 tumor; [18]) was 0/0/0. The “Regressions: PR (partial regressions)” value (BT474 tumor; [18]) was 0/0/0, the “Regressions: TFS (tumor free survivors)” value (BT474 tumor; [18]) was 0/0/0 and the “% tumor growth delay” value (BT474 tumor; [15]) was −4%. For the same compound, the Difference from control (BT474 tumor; [15]) was −1.4, the “Median Total Time to Endpoint” value (BT474 tumor; [15]) was 36.8 days and the “Regressions: CR (complete regressions)” value (BT474 tumor; [15]) was 0/0/0. For the same compound, the “Regressions: PR (partial regressions)” value (BT474 tumor; [15]) was 0/0/0, the “Regressions: TFS (tumor free survivors)” value (BT474 tumor; [15]) was 0/0/0 and the “Regressions: CR (complete regressions)” value (BT474 tumor; [16]) was 0/0/0. For the same compound, the “Regressions: PR (partial regressions)” value (BT474 tumor; [16]) was 0/0/0 and the “Regressions: TFS (tumor free survivors)” value (BT474 tumor; [16]) was 0/0/0.
With `O=P1(N(CCCl)CCCl)NCCCO1` (centres unmarked) [cyclophosphamide] the Difference from control (MCF-7 tumor; Group 2: 112 mg/kg Q4D×3) was 9.2 and the “Median Total Time to Endpoint” value (MCF-7 tumor; Group 2: 112 mg/kg Q4D×3) was 14.7 days.
In the case of `Cc1onc(-c2ccccc2)c1-c1ccc(S(N)(=O)=O)cc1` [valdecoxib], the “reduction of tumor volume” value [10, 17] is reported as 69%.
